In PubChem BioAssay AID330 (DTP/NCI, 2004):
Where “and” joins values, the source holds several entries; their conditions need not be identical. Equal entries are not always repeated. Toxic doses and inconclusive results are not listed. Rule for the calls: active = survival T/C of 150% or more; inactive = T/C below 125% in these data.

Test system: P388 leukemia ip, CD2F1 mice, survival T/C
Experiment: NCI In Vivo Anticancer Drug Screen. Data for tumor model P388 Leukemia (intraperitoneal) in CD2F1 (CDF1) mice
Conditions: endpoint: median survival time, higher = longer survival
Method in brief: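 Mice carrying the transplanted tumor received test compound or vehicle. Survival was recorded in each group, and the value is the treated-group measurement divided by that of the vehicle-treated control group.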

[1] = dose: 50.0 mg/kg/injection, schedule: Q01DX005 (ip), vehicle: saline with Tween-80
[2] = dose: 100.0 mg/kg/injection, schedule: Q01DX005 (ip), vehicle: saline with Tween-80
[3] = dose: 200.0 mg/kg/injection, schedule: Q01DX005 (ip), vehicle: saline with Tween-80
[4] = dose: 50.0 mg/kg/injection, schedule: Q04DX003 (ip), vehicle: saline with Tween-80
[5] = dose: 100.0 mg/kg/injection, schedule: Q04DX003 (ip), vehicle: saline with Tween-80
[6] = dose: 100.0 mg/kg/injection, schedule: Q01DX001 (ip), vehicle: saline with Tween-80
[7] = dose: 200.0 mg/kg/injection, schedule: Q01DX001 (ip), vehicle: saline with Tween-80
[8] = dose: 50.0 mg/kg/injection, schedule: Q01DX009 (ip), vehicle: Klucel (hydroxypropylcellulose) (HPC)
[9] = dose: 100.0 mg/kg/injection, schedule: Q01DX009 (ip), vehicle: Klucel (hydroxypropylcellulose) (HPC)
[10] = dose: 200.0 mg/kg/injection, schedule: Q01DX009 (ip), vehicle: Klucel (hydroxypropylcellulose) (HPC)
[11] = dose: 50.0 mg/kg/injection, schedule: Q01DX009 (ip), vehicle: saline with Tween-80
[12] = dose: 50.0 mg/kg/injection, schedule: Q01DX009 (ip), vehicle: saline
[13] = dose: 100.0 mg/kg/injection, schedule: Q01DX009 (ip), vehicle: saline with Tween-80
[14] = dose: 100.0 mg/kg/injection, schedule: Q01DX009 (ip), vehicle: saline
[15] = dose: 200.0 mg/kg/injection, schedule: Q01DX009 (ip), vehicle: saline with Tween-80
[16] = dose: 200.0 mg/kg/injection, schedule: Q01DX009 (ip), vehicle: saline
[17] = dose: 25.0 mg/kg/injection, schedule: Q01DX005 (ip), vehicle: saline with Tween-80
[18] = dose: 60.0 mg/kg/injection, schedule: Q01DX005 (ip), vehicle: saline with Tween-80
[19] = dose: 15.0 mg/kg/injection, schedule: Q01DX005 (ip), vehicle: saline with Tween-80
[20] = dose: 30.0 mg/kg/injection, schedule: Q01DX005 (ip), vehicle: saline with Tween-80

Measured: T/C

C/C(N=NC(=S)N1CCCCC1)=C1\C=CC=CN1O
inactive: [1] 106 % of control | [2] 98 % of control | [3] 105 % of control

O=C1NCNC(=O)N1
inactive: dose: 12.5 mg/kg/injection, schedule: Q04DX003 (ip), vehicle: saline with Tween-80 100 % of control | dose: 25.0 mg/kg/injection, schedule: Q04DX003 (ip), vehicle: saline with Tween-80 98 % of control | [4] 101 % of control | [5] 98 % of control

CCC(c1ccc(OC)cc1)C(NCC(=O)N/N=C/c1c[nH]c2ccccc12)c1ccc(OC)cc1 (stereo not drawn)
inactive: [6] 94 % of control | [7] 87 % of control

CCCCCN(CCCCC)CC(=O)O[C@H]1C[C@H]2CC[C@@]1(C)C2(C)C
inactive: [1] 103 % of control | [2] 105 % of control | [3] 107 % of control

O=C1CCC/C1=C1/SS/C(=C2/CCCC2=O)S1
inactive: [8] 101 % of control | [9] 102 % of control | [10] 98 % of control

COc1c2c(cc3c1OCO3)CCN(C)C2
inactive: dose: 10.0 mg/kg/injection, schedule: Q01DX009 (ip), vehicle: saline 106 % of control | dose: 20.0 mg/kg/injection, schedule: Q01DX009 (ip), vehicle: saline 101 % of control | dose: 40.0 mg/kg/injection, schedule: Q01DX009 (ip), vehicle: saline 98 % of control | dose: 80.0 mg/kg/injection, schedule: Q01DX009 (ip), vehicle: saline 104 % of control

CCOC(=O)c1cnn(-c2ccccc2)c1N
inactive: dose: 12.5 mg/kg/injection, schedule: Q01DX009 (ip), vehicle: saline with Tween-80 99 % of control | dose: 12.5 mg/kg/injection, schedule: Q01DX009 (ip), vehicle: saline 99 % of control | dose: 25.0 mg/kg/injection, schedule: Q01DX009 (ip), vehicle: saline with Tween-80 109 % of control | dose: 25.0 mg/kg/injection, schedule: Q01DX009 (ip), vehicle: saline 102 % of control | [11] 101 % of control | [12] 99 % of control | [13] 96 % of control | [14] 103 % of control | [15] 96 % of control | [16] 94 % of control | dose: 400.0 mg/kg/injection, schedule: Q01DX009 (ip), vehicle: saline with Tween-80 99 % of control | dose: 400.0 mg/kg/injection, schedule: Q01DX009 (ip), vehicle: saline 105 % of control

C=C(C)C1(C)CC1c1ccncc1 (stereo not drawn)
inactive: [17] 102 % of control | [1] 103 % of control | [2] 94 % of control

CC1CCCCC1OC(=O)Nc1ccccc1 (stereo not drawn)
inactive: [12] 105 % of control | [14] 101 % of control | [16] 100 % of control

CSc1nc2c(=S)[nH]c(=S)[nH]c2s1
inactive: dose: 100.0 mg/kg/injection, schedule: Q04DX002 (ip), vehicle: Klucel (hydroxypropylcellulose) (HPC) 101 % of control | dose: 200.0 mg/kg/injection, schedule: Q04DX002 (ip), vehicle: Klucel (hydroxypropylcellulose) (HPC) 100 % of control | dose: 400.0 mg/kg/injection, schedule: Q04DX002 (ip), vehicle: Klucel (hydroxypropylcellulose) (HPC) 100 % of control

CC(C)COC(=O)NCCCl
inactive: [11] 100 % of control | [13] 97 % of control | [15] 97 % of control

COc1ccc(C2OC3=C(Nc4ccc([N+](=O)[O-])cc4N3)C2=O)cc1OC (stereo not drawn)
inactive: dose: 60.0 mg/kg/injection, schedule: Q01DX005 (ip), vehicle: Klucel (hydroxypropylcellulose) (HPC) 89 % of control | dose: 120.0 mg/kg/injection, schedule: Q01DX005 (ip), vehicle: Klucel (hydroxypropylcellulose) (HPC) 93 % of control | dose: 240.0 mg/kg/injection, schedule: Q01DX005 (ip), vehicle: Klucel (hydroxypropylcellulose) (HPC) 89 % of control

CNC(C)C(O)c1ccccc1 (stereo not drawn)
inactive: [4] 95 % of control | [5] 95 % of control | dose: 200.0 mg/kg/injection, schedule: Q04DX003 (ip), vehicle: saline with Tween-80 100 % of control

C[C@]12CC[C@H]3[C@@H](CC[C@H]4N(CCCl)CCC[C@]34C)[C@@H]1CC[C@@H]2O
inactive: dose: 25.0 mg/kg/injection, schedule: Q01DX001 (ip), vehicle: saline 108 % of control

COC(=O)C1=CC(=O)N2C(=Nc3cccc4cccc2c34)S1
inactive: dose: 6.25 mg/kg/injection, schedule: Q01DX005 (ip), vehicle: saline with Tween-80 91 % of control | dose: 12.5 mg/kg/injection, schedule: Q01DX005 (ip), vehicle: saline with Tween-80 94 % of control | [17] 103 % of control | [2] 99 % of control | [3] 103 % of control

COc1cc2c(cc1OC)-c1c(C)c3ccc(OC)c(NCCN)c3c[n+]1CC2
inactive: dose: 6.25 mg/kg/injection, schedule: Q04DX003 (ip), vehicle: water 110 % of control | dose: 12.5 mg/kg/injection, schedule: Q04DX003 (ip), vehicle: water 91 % of control | dose: 25.0 mg/kg/injection, schedule: Q04DX003 (ip), vehicle: water 101 % of control

COc1cc2c(cc1OC)C(Cc1ccccc1NC(=O)c1ccc(C(=O)Nc3ccccc3CC3c4cc(OC)c(OC)cc4CCN3C)cc1)N(C)CC2 (stereo not drawn)
inactive: [18] 89 % of control | dose: 120.0 mg/kg/injection, schedule: Q01DX005 (ip), vehicle: saline with Tween-80 88 % of control | dose: 240.0 mg/kg/injection, schedule: Q01DX005 (ip), vehicle: saline with Tween-80 94 % of control

CCOc1ccccc1/C=C1\CCc2ccccc2C1=O
inactive: [8] 100 % of control | [9] 100 % of control | [10] 102 % of control

CC(C)=NNC1=NC(C)(C)P(=O)(NCC(=O)O)S1 (stereo not drawn)
inactive: dose: 60.0 mg/kg/injection, schedule: Q01DX005 (ip), vehicle: saline 103 % of control | dose: 120.0 mg/kg/injection, schedule: Q01DX005 (ip), vehicle: saline 103 % of control | dose: 240.0 mg/kg/injection, schedule: Q01DX005 (ip), vehicle: saline 100 % of control

Cc1cc2cc(N)ccc2[se]1
inactive: dose: 50.0 mg/kg/injection, schedule: Q01DX009 (ip), vehicle: suspension in saline 98 % of control | [14] 94 % of control | dose: 100.0 mg/kg/injection, schedule: Q01DX009 (ip), vehicle: suspension in saline 108 % of control | [16] 89 % of control | dose: 200.0 mg/kg/injection, schedule: Q01DX009 (ip), vehicle: suspension in saline 101 % of control

CN(C)c1ncnc2c1ccn2CC(O)CO (stereo not drawn)
inactive: dose: 50.0 mg/kg/injection, schedule: Q01DX005 (ip), vehicle: distilled water + alcohol 109 % of control | dose: 100.0 mg/kg/injection, schedule: Q01DX005 (ip), vehicle: distilled water + alcohol 101 % of control | dose: 200.0 mg/kg/injection, schedule: Q01DX005 (ip), vehicle: distilled water + alcohol 97 % of control

COc1cc2[nH]c3cc(OC)c(OC)cc3c2cc1C
inactive: [19] 100 % of control | [20] 96 % of control | [18] 102 % of control and 86 % of control

CCN(CC)CCOc1ccc(C(C)=O)cc1
inactive: [17] 99 % of control | [1] 92 % of control | [2] 101 % of control

CCOC(=O)CC(CS(=O)CP(=O)(OCC)OCC)C(=O)OCC (stereo not drawn)
inactive: dose: 7.5 mg/kg/injection, schedule: Q01DX005 (ip), vehicle: saline with Tween-80 91 % of control | [19] 92 % of control | [20] 102 % of control | [18] 102 % of control and 110 % of control

CSc1nc(SC)c2c(CO)c(Br)n(Cc3ccccc3)c2n1
inactive: dose: 100.0 mg/kg/injection, schedule: Q04DX002 (ip), vehicle: saline with Tween-80 98 % of control | dose: 200.0 mg/kg/injection, schedule: Q04DX002 (ip), vehicle: saline with Tween-80 94 % of control | dose: 400.0 mg/kg/injection, schedule: Q04DX002 (ip), vehicle: saline with Tween-80 88 % of control

CCOC(=O)C[n+]1cc2ccccc2cc1C
inactive: [1] 94 % of control | [2] 108 % of control

COc1cc2ccnc(-c3nccc4cc(OC)c(OC)cc34)c2cc1OC
inactive: [6] 97 % of control | [7] 92 % of control | dose: 400.0 mg/kg/injection, schedule: Q01DX001 (ip), vehicle: saline with Tween-80 97 % of control
